In patent publication US9241928B2, “Antimicrobial compounds” (The General Hospital Corporation, priority 2009, dated 2016):
Converted amounts (≈) assume the structure as drawn.

Columns and labels:
[1] = system: C. elegans infected with E. faecalis; test: Automated infection assay for primary compound screening (SYTOX staining, CELLPROFILER); type: in vivo, Caenorhabditis elegans
Procedure: In general, the area of each well that is SYTOX-positive in the fluorescence image is measured and normalized by the total area occupied by all worms, which is quantified in the bright field image. This typically requires illumination correction to flatten lighting abnormalities, adaptive thresholding, and size- and contrast-based filters and masks to exclude debris and other artifacts. By calculating the ratio of the fluorescent area (which corresponds to the area occupied by dead worms) to the total area occupied by all worms, one can accurately determine the number of dead worms in each well. […] In a well where the worms are rescued by ampicillin treatment, 3 of the 14 worms were dead based on manual scoring. The ratio of the fluorescent area to the area occupied by all worms obtained by the CELLPROFILER analysis is correspondingly low at 0.12.
glp-4(bn2); sek-1 (km4) mutant worms were grown to gravid adult stage. 1,000 worms at the L1 stage were grown for 5.2 days at 15° C. on 9-cm plates of SK agar media spread with a lawn of E. coli strain HB101. Embryos from the gravid adults were isolated by a previously described hypochlorite method (see Tan et al., (1999) Proc. Natl. Acad. Sci. USA 96, 715-720) and hatched at 15° C. for 2 days. Approximately 4,500 of the Ll hatchlings were grown on each 9-cm plate of SK-NS agar (SK media with 62.5 U/ml nystatin and 100 μg/ml streptomycin) and with lawns of E. coli HB101. These worms were grown at 25° C. for 52 hours to generate sterile, young adults.
A culture of E. faecalis MMH594 was grown in BHI broth (BD Difco) with 80 μg/ml kanamycin at 37° C. for 6 hours and 100 μl of the culture were spread onto each 9-cm plate of BHI agar containing 80 μg/mlkanamycin. Lawns of E. faecalis were grown at 25° C. for 16 hours and transferred to 15° C. for 8 hours.
Sterile adult worms were resuspended in M9 buffer and washed twice with M9 in a 1:10 ratio to remove E. coli. 8,000 worms were pipetted onto each lawn of E. faecalis and incubated 15 hours at 15° C. After infection, the worms were resuspended in M9 and used as described below. 384-well plates (Corning #3712) were filled with 55 μl media (see below) using a Thermo Scientific MULTIDROP Combi reagent dispenser. 0.3 μl of a candidate compound in DSMO were pin transferred into each well using a CyBio CYBI-Well vario transfer system. The plates were agitated using an Eppendorf MIXMATE at 1,800 rpm for 15 seconds. Using the Union Biometrica Complex Object Parametric Analyzer and Sorter (COPAS) BIOSORT worm sorter according to manufacturer's protocols, 15 of the infected worms were transferred to each well in a total volume of approximately 15 μl. Total volume per well is 70 μl/well with a final composition of the media being 20% BHI, […], 80 μg/ml kanamycin, 62.5 U/ml nystatin, 1% DMSO, and 19% sheath solution (Union Biometrica Part #300-5101-000). Plates were vortexed for 5 seconds, centrifuged at 1000×g for 10 seconds, and sealed with gas permeable membranes (BREATHEASY Diversified). Plates were placed in a single layer on the top shelves in a 26.3° C. incubator at 85% relative humidity (RH) and incubated without agitation for 5 days.
After 5 days, the bacteria and liquid media in the assay plates were removed as described below. First, the bacteria were re-suspended by shaking on the MIXMATE for 15 seconds at 1,800 rpm, the sealing membrane was removed, and the worms were allowed to settle to the bottom of the wells for 3 minutes. […]

E. faecalis MMH594 = test: MIC assay, E. faecalis in vitro; type: cell-based; settings: Enterococcus faecalis; E. faecalis MMH594 in 20% BHI, 80% M9, 37° C., 15 hours, scored by eye
Procedure: A culture of E. faecalis MMH594 was grown overnight in BHI broth to stationary phase at 37° C. with aeration. The culture was diluted to an approximate density of […] in worm infection media (20% BHI, 80% M9 buffer). 12.5 μl of the bacterial culture dilution was inoculated into 384-well plates containing 12.5 μl of 2-fold serial dilutions of a test compound. […] Plates were incubated at 37° C. for 15 hours and scored by eye for bacterial growth.

| Structure (SMILES) | curing activity in the primary screen ([1]; primary screen) | retest in secondary screen ([1]; secondary experiment) | MIC (E. faecalis MMH594) [µg/mL] |
| --- | --- | --- | --- |
| Cc1ccc(Nc2nc(N)c3ccccc3n2)cc1Cl [Compound 26] | cured infected C. elegans | did not re-test |  |
| NNc1ccc2c(Cl)cc(Cl)c(O)c2n1 [Compound 11] |  |  | 6.25 (≈ 25.6 µM) |
